Source: paper PMC10648349, “Aromatic Diboronic Acids as Effective KPC/AmpC Inhibitors” (Molecules, 2023)
Values after ≈ are worked out from the molar mass of the structure shown.

Tests used:
[1] = tested on: C. guilliermondii IBA 155; test: antifungal activity (disc-diffusion, MIC, MFC); assay type: cell-based, Candida guilliermondii; conditions: Meyerozyma guilliermondii, IBA155; for MIC: fluconazole by Etest
Protocol: (§1) Direct antimicrobial activity against Gram-negative and Gram-positive bacterial strains, as well as against yeast, was examined as previously described by the disc-diffusion test, the MIC determination assay, the MBC (for bacteria), and the MFC (for yeasts) determination tests. All the above-mentioned tests were performed according to EUCAST [71, 72] and CLSI [73, 74, 75, 76, 77] recommendations. The following reference agents were used: nitrofurantoin (for Gram-negative rods), linezolid (for Gram-positive bacteria), and fluconazole (in the case of fungi). The new aromatic diboronic acids were dissolved in DMSO (Sigma, St. Louis, MO, USA). In the disc-diffusion test, the concentration of new agents was 0.4 mg per disc.

C. krusei ATCC 6258 = test: antifungal activity (disc-diffusion, MIC, MFC); assay type: cell-based, Candida krusei; conditions: Pichia kudriavzevii, ATCC6258; for MIC: fluconazole by Etest
Protocol: as §1

C. albicans ATCC 90028 = test: antifungal activity (disc-diffusion, MIC, MFC); assay type: cell-based; conditions: Candida albicans, ATCC90028; for MIC: fluconazole by Etest
Protocol: as §1

C. tropicalis IBA 171 = test: antifungal activity (disc-diffusion, MIC, MFC); assay type: cell-based; conditions: Candida tropicalis, IBA171; for MIC: fluconazole by Etest
Protocol: as §1

C. tropicalis ATCC 750 = test: antifungal activity (disc-diffusion, MIC, MFC); assay type: cell-based; conditions: Candida tropicalis, ATCC750; for MIC: fluconazole by Etest
Protocol: as §1

S. cerevisiae ATCC 9763 = test: antifungal activity (disc-diffusion, MIC, MFC); assay type: cell-based; conditions: Saccharomyces cerevisiae, ATCC9763; for MIC: fluconazole by Etest
Protocol: as §1

[2] = MTT-based viability assay; assay type: cell-based; conditions: human, MRC-5 human fibroblasts, 72 h, read-out: Viability of MRC-5 cells (% of viable cells ± SD)
Protocol: MRC-5 human fibroblasts (ECACC) were cultured in MEME, Minimum Essential Medium Eagle (Merck) supplemented with 10% fetal bovine serum (Merck), 2 mM l-glutamine, antibiotics (100 U/mL penicillin, 100 μg/mL streptomycin, Merck) and 1% non-essential amino acids (Merck). Cells were grown in 75 cm^2 cell culture flasks (Sarstedt) in a humidified atmosphere of CO2/air (5/95%) at 37 °C. MTT-based viability assay was conducted as described previously. Optical densities were measured at 570 nm using a BioTek microplate reader. All measurements were carried out in three replicates, and the results were expressed as a percent of viable cells versus control cells.

[3] = tested on: S. aureus ATCC 43300 MRSA; test: direct antimicrobial activity (disc-diffusion, MIC, MBC); assay type: cell-based; conditions: Staphylococcus aureus
Protocol: as §1

[4] = tested on: S. epidermidis ATCC 12228; test: as above; assay type: cell-based; conditions: Staphylococcus epidermidis, ATCC12228
Protocol: as §1

S. aureus ATCC 6538P = test: as above; assay type: cell-based; conditions: Staphylococcus aureus, ATCC6538P
Protocol: as §1

E. faecalis ATCC 29212 = test: as above; assay type: cell-based; conditions: Enterococcus faecalis, ATCC29212
Protocol: as §1

E. faecium ATCC 6057 = test: as above; assay type: cell-based; conditions: Enterococcus faecium, ATCC6057
Protocol: as §1

[5] = tested on: C. parapsilosis ATCC 22019; test: antifungal activity (disc-diffusion, MIC, MFC); assay type: cell-based, Candida parapsilosis; conditions: Lodderomyces parapsilosis, ATCC22019; for MIC: fluconazole by Etest
Protocol: as §1

[6] = tested on: K. pneumoniae 81 KPC-3-positive; test: checkerboard microdilution, antibiotic plus tested agent; assay type: cell-based, Klebsiella pneumoniae; conditions: Klebsiella pneumoniae; read-out: MIC of imipenem alone
Protocol: (§2) To examine the ability of tested agents to inhibit various carbapenemases and AmpC-enzymes, their synergy with antibiotics against β-lactamase-producing strains was assessed by checkerboard microdilution assay, with slight modification. Checkerboards were prepared in microtiter plates, with seven two-fold dilutions of β-lactams (1–64 mg/L) in the rows and three two-fold dilutions of tested agents and PBA (4–16 mg/L) in the columns. Tested agents’ concentrations were limited to the concentrations at which the newest commercially available BLIs (vaborbactam, relebactam, and avibactam) are used in susceptibility testing. Plates were inoculated and incubated as in the MIC microdilution assay. Parallel, MICs of tested agents and PBA alone were determined by the microdilution assay. Following the incubation, antibiotic MICs in the presence of each agent’s concentration were determined. Moreover, for the first well without growth found in each checkerboard row and column along the growth/non-growth interface, the fractional inhibitory concentration index (FICI) was calculated using the formula below:FICI = [(MIC of antibiotic in combination)/(MIC of antibiotic alone)] + [(MIC of the tested agent in combination)/(MIC of tested agent alone)].
(§3) For calculations, all off-scale MICs were converted to the next-highest doubling concentration. Subsequently, both the average and the lowest FICI were interpreted. The interpretation was as follows: FICI ≤ 0.5, synergy; 0.5 < FICI ≤ 4, indifference and FICI > 4, antagonism. Primarily, examined combinations consisted of meropenem (Pol-Aura, Morag, Poland) plus tested agents against carbapenemases-producing strains and ceftazidime (Pol-Aura, Morag, Poland) plus tested agents against AmpC-producing strains. For agents that reduced meropenem MIC at least 4-fold for at least two tested strains, similar assays were performed with imipenem (Pol-Aura, Morag, Poland) and ertapenem (Pol-Aura, Morag, Poland).

[7] = tested on: K. pneumoniae 83 KPC-3-positive, CTX-M-3-positive; test: as above; assay type: cell-based, Klebsiella pneumoniae; conditions: Klebsiella pneumoniae; read-out: MIC of imipenem alone
Protocol: as §2, §3

[8] = tested on: K. pneumoniae ATCC BAA-1705 KPC-2-positive; test: as above; assay type: cell-based, Klebsiella pneumoniae; conditions: Klebsiella pneumoniae, ATCCBAA1705; read-out: MIC of imipenem alone
Protocol: as §2, §3

[9] = tested on: E. coli 76 KPC-2-positive; test: as above; assay type: cell-based, Escherichia coli; conditions: Escherichia coli; read-out: MIC of imipenem alone
Protocol: as §2, §3

[10] = tested on: P. aeruginosa MUW 700 cAmpC-positive; test: as above; assay type: cell-based, Pseudomonas aeruginosa; conditions: Pseudomonas aeruginosa; read-out: MIC of ceftazidime alone
Protocol: as §2, §3

[11] = tested on: K. pneumoniae ATCC 700603 ESBL-positive; test: combination disc test CDT-ESBL; assay type: cell-based; conditions: Klebsiella pneumoniae, ATCC700603; ceftazidime 30 µg per disc, 6 mm disc; read-out: Diameter of inhibition zone, CAZ-30 disc without agent
[12] = tested on: P. aeruginosa MUW 700 cAmpC-positive; test: combination disc test CDT-AmpC; assay type: cell-based; conditions: Pseudomonas aeruginosa; ceftazidime 30 µg per disc, 6 mm disc; read-out: Diameter of inhibition zone, CAZ-30 disc without agent
[13] = tested on: E. coli 77 CMY-2-positive; test: checkerboard microdilution, antibiotic plus tested agent; assay type: cell-based, Escherichia coli; conditions: Escherichia coli; read-out: MIC of ceftazidime alone
Protocol: as §2, §3

[14] = tested on: E. coli 77 CMY-2-positive; test: combination disc test CDT-AmpC; assay type: cell-based; conditions: Escherichia coli; ceftazidime 30 µg per disc, 6 mm disc; read-out: Diameter of inhibition zone, CAZ-30 disc without agent
[15] = 0.4 mg per disc, 9 mm disc (fluconazole 0.025 mg, 6 mm disc), - no zone, read-out: Diameter of inhibition zone

Row | SMILES | MIC [1] [µg/mL] | MIC (C. krusei ATCC 6258) [µg/mL] | MIC (C. albicans ATCC 90028) [µg/mL] | MIC (C. tropicalis IBA 171) [µg/mL] | MIC (C. tropicalis ATCC 750) [µg/mL] | MIC (S. cerevisiae ATCC 9763) [µg/mL] | viability at 72 h, 12.5 mg/L [2] [%] | viability at 72 h, 25 mg/L [2] [%] | viability at 72 h, 50 mg/L [2] [%] | MIC [3] [µg/mL] | MIC [4] [µg/mL] | MIC (S. aureus ATCC 6538P) [µg/mL] | MIC (E. faecalis ATCC 29212) [µg/mL] | MIC (E. faecium ATCC 6057) [µg/mL] | MIC [5] [µg/mL] | further results
1 | Cl.OB(O)c1cncc(B(O)O)c1 [6a, pyridine-3,5-diboronic acid hydrochloride] | > 400 | > 400 | > 400 | > 400 | > 400 | > 400 | 138 ± 3.6 | 133.5 ± 0.7 | 127 ± 2.6 | 400 | 400 | 50 | > 400 | 400 | > 400 | –
2 | OC(Cn1cncn1)(Cn1cncn1)c1ccc(F)cc1F [Fl, fluconazole, reference compound] | 0.75 (≈ 2.45 µM) | 64 (≈ 209 µM) | 1 (≈ 3.27 µM) | 0.38 (≈ 1.24 µM) | 0.38 (≈ 1.24 µM) | 16 (≈ 52.2 µM) | – | – | – | – | – | – | – | – | 2 (≈ 6.53 µM) | zone of inhibition at 0.4 mg/disc [1, 15]: 40 mm; zone of inhibition at 0.4 mg/disc (C. krusei ATCC 6258; [15]): 16 mm; zone of inhibition at 0.4 mg/disc (C. albicans ATCC 90028; [15]): 43 mm; zone of inhibition at 0.4 mg/disc (C. tropicalis IBA 171; [15]): 39 mm; zone of inhibition at 0.4 mg/disc (C. tropicalis ATCC 750; [15]): 40 mm; zone of inhibition at 0.4 mg/disc (S. cerevisiae ATCC 9763; [15]): 12 mm; zone of inhibition at 0.4 mg/disc [5, 15]: 32 mm
3 | COc1cc(B(O)O)c(OC)cc1B(O)O [1l] | – | – | – | – | – | – | 110 ± 1.6 | 114 ± 1.8 | 105 ± 7.8 | – | – | – | – | – | – | –
4 | OB(O)c1c(F)c(F)c(B(O)O)c(F)c1F [1g] | > 400 | 400 (≈ 1680 µM) | > 400 | > 400 | > 400 | > 400 | 104 ± 8.2 | 107 ± 9.2 | 98.7 ± 5.8 | > 400 | > 400 | > 400 | > 400 | > 400 | > 400 | –
5 | C[C@@H](O)[C@H]1C(=O)N2C(C(=O)O)=C(SCCN=CN)C[C@H]12 [IMI, imipenem, reference compound] | – | – | – | – | – | – | – | – | – | – | – | – | – | – | – | MIC [6]: 8 µg/mL; MIC [7]: 8 µg/mL; MIC [8]: 16 µg/mL; MIC [9]: 128 µg/mL
6 | OB(O)c1ccc(B(O)O)s1 [5b] | > 400 | 400 (≈ 2330 µM) | 400 (≈ 2330 µM) | > 400 | > 400 | > 400 | 101 ± 7.7 | 110 ± 2.7 | 87.3 ± 13.6 | > 400 | > 400 | > 400 | 200 (≈ 1160 µM) | > 400 | > 400 | –
7 | CC(C)(O/N=C(\C(=O)N[C@@H]1C(=O)N2C(C(=O)[O-])=C(C[n+]3ccccc3)CS[C@H]12)c1csc(N)n1)C(=O)O [CAZ, ceftazidime, reference compound] | – | – | – | – | – | – | – | – | – | – | – | – | – | – | – | MIC [10]: 128 µg/mL; zone of inhibition at 30 µg/disc [11]: 14 mm; zone of inhibition at 30 µg/disc [12]: 11 mm; MIC [13]: 64 µg/mL; zone of inhibition at 30 µg/disc [14]: 13 mm
